Laboratory results reported in patent US11248030B2, “Dual IL-2R and IL-7R binding compounds” (MEDIKINE, INC., priority 2019, dated 2022).
pIC50: −log10 of the molar value.

Target: T1, IL-2Rβ subunit (Homo sapiens, UniProt P14784)
T1 construct: human IL-2Rβ (CD122 protein, Fc Tag) (27-239); Fc; purchased ACRObiosystems, Inc. ILB-H5253
Experiment: competitive binding assay, specific binding site on the IL-2Rβ subunit
Conditions: not given

T1 sequence (P14784 27-239): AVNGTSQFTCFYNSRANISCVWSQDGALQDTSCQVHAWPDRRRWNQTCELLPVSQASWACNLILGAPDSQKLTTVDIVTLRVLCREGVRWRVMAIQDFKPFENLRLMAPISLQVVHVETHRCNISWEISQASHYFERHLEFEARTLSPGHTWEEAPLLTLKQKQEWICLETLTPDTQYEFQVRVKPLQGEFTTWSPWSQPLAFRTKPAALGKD

Question: With CC[C@H](C)[C@@H]1NC(=O)[C@H](CCCNC(=N)N)NC(=O)[C@@H](NC(=O)[C@H](CC(=O)O)NC(=O)[C@@H](N)Cc2ccc(O)cc2)CSSC[C@@H](C(=O)N[C@@H](CC(=O)O)C(=O)N[C@@H](CC(C)C)C(=O)O)NC(=O)[C@H](CC(C)C)NC(=O)[C@H](CCC(=O)O)NC(=O)CNC(=O)[C@H](C(C)C)NC(=O)[C@H](CCC(N)=O)NC(=O)[C@H](C)NC1=O [SEQ ID NO: 154, Y D C R I A Q V G E L C D L] as the compound, how does the pIC50 read?
Answer: Its pIC50 is greater than 5.00.

Question: With CC[C@H](C)[C@H](NC(=O)[C@H](CCC(N)=O)NC(=O)[C@@H]1CSSC[C@H](NC(=O)[C@H](CCSC)NC(=O)[C@@H](N)CC(N)=O)C(=O)N[C@@H](CC(C)C)C(=O)N[C@@H](C(C)C)C(=O)NCC(=O)N[C@@H](CC(=O)O)C(=O)N[C@@H](Cc2ccc(O)cc2)C(=O)N[C@@H](Cc2c[nH]c3ccccc23)C(=O)N2CCC[C@H]2C(=O)N[C@@H](CO)C(=O)N1)C(=O)O [SEQ ID NO: 180, N M C L V G D Y W P S C Q I] as the compound, how does the pIC50 read?
Answer: The pIC50 was greater than 5.00.

Question: CSCC[C@H](NC(=O)[C@H](CC(C)C)NC(=O)[C@H](CC(C)C)NC(=O)[C@H](CC(=O)O)NC(=O)CNC(=O)[C@@H](NC(=O)[C@H](CC(=O)O)NC(=O)CNC(=O)[C@H](Cc1c[nH]c2ccccc12)NC(=O)[C@@H](N)CCCNC(=N)N)C(C)C)C(=O)N1CCC[C@H]1C(=O)N[C@@H](CC(C)C)C(=O)O [SEQ ID NO: 209, R W G D V G D L L M P L] was tested. Which pIC50 did it give?
Answer: Its pIC50 is greater than 5.00.

Target: T2, IL-7Rα subunit (Homo sapiens, UniProt P16871)
T2 construct: human IL-7Rα (CD127 protein, Fc Tag) (21-236); Fc; purchased ACRObiosystems, Inc. ILB-H5258
Experiment: competitive binding assay, specific binding site on the IL-7Rα subunit
Conditions: specific binding site distinct from that of IL-7

T2 sequence (P16871 21-236): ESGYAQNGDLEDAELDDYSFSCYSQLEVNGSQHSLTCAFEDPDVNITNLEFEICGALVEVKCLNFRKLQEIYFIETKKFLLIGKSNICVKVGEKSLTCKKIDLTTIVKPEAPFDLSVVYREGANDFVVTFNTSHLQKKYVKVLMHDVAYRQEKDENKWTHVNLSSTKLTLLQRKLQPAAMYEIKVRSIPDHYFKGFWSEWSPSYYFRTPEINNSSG

Question: CC[C@H](C)[C@@H]1NC(=O)[C@H](CCC(=O)O)NC(=O)[C@H](C)NC(=O)[C@@H](NC(=O)[C@H](Cc2ccc(O)cc2)NC(=O)[C@@H](N)C(C)C)CSSC[C@@H](C(=O)N[C@@H](CCCNC(=N)N)C(=O)N[C@@H](CCC(N)=O)C(=O)O)NC(=O)[C@H](C(C)C)NC(=O)[C@H](CCCNC(=N)N)NC(=O)[C@H](Cc2ccc(O)cc2)NC(=O)[C@H](CCC(=O)O)NC(=O)CNC1=O [SEQ ID NO: 2043, V Y C A E I G E Y R V C R Q] was tested. Which pIC50 did it give?
Answer: The pIC50 was greater than 5.00.

Question: With CC[C@H](C)[C@@H]1NC(=O)[C@@H](NC(=O)[C@@H](N)CCC(N)=O)CSSC[C@@H](C(=O)N[C@H](C(=O)O)C(C)C)NC(=O)[C@H](CO)NC(=O)[C@H](CC(C)C)NC(=O)[C@H](CC(C)C)NC(=O)[C@H]([C@@H](C)O)NC(=O)[C@H](CCC(=O)O)NC(=O)[C@H]([C@@H](C)CC)NC(=O)[C@H](CC(=O)O)NC(=O)[C@H](Cc2c[nH]c3ccccc23)NC(=O)[C@H](Cc2c[nH]cn2)NC1=O [SEQ ID NO: 2159, Q C I H W D I E T L L S C V] as the compound, how does the pIC50 read?
Answer: Its pIC50 is greater than 5.00.

Question: With CC(C)C[C@@H]1NC(=O)[C@H](CO)NC(=O)CNC(=O)[C@@H]2CCCN2C(=O)[C@H](CC(=O)O)NC(=O)[C@H](CC(C)C)NC(=O)[C@H]([C@@H](C)O)NC(=O)[C@@H](NC(=O)[C@H](Cc2c[nH]c3ccccc23)NC(=O)[C@@H]2CCCN2C(=O)[C@@H](N)C(C)C)CSSC[C@@H](C(=O)N[C@@H](C)C(=O)N[C@@H](Cc2c[nH]c3ccccc23)C(=O)N[C@@H](Cc2ccccc2)C(=O)O)NC(=O)[C@H](CCC(N)=O)NC1=O [SEQ ID NO: 2313, V P W C T L D P G S L Q C A W F] as the compound, how does the pIC50 read?
Answer: Its pIC50 is greater than 5.00.
